Experimental data as given in patent US10221174B2, “N-(phenylsulfonyl)benzamides and related compounds as BCL-2 inhibitors” (THE REGENTS OF THE UNIVERSITY OF MICHIGAN, priority 2016, dated 2019).
Where two headings read alike, the source gives them in different places.

Key:
Bcl-xL = Bcl-xL (Homo sapiens (Human), UniProt Q07817); assay: Fluorescence polarization competitive binding assay, Bcl-xL; conditions: FP competition, 10 nM Bcl-xL, 2 nM Flu-BAK probe; read-out: Inhibitory activity IC50 Bcl-xL
Chain of Bcl-xL (Q07817 whole entry): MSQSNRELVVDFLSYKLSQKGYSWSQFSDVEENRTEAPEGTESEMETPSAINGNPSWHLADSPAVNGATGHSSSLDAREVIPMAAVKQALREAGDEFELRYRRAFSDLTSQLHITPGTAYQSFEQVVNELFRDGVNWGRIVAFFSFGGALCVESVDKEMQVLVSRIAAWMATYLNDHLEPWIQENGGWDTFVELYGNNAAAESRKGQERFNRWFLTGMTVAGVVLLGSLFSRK
Description: (§1) Fluorescence polarization values were measured using the Infinite M-1000 plate reader (Tecan U.S., Research Triangle Park, N.C.) in Microfluor 1 96-well, black, round-bottom plates (Thermo Scientific). […] Plates were mixed and incubated at room temperature for 1 hour with gentle shaking to assure equilibrium. […] Equilibrium dissociation constants (Kd) were then calculated by fitting the sigmoidal dose-dependent FP increases as a function of protein concentrations using Graphpad Prism 5.0 software (Graphpad Software, San Diego, Calif.).
(§2) Mixtures of 5 μl of the tested inhibitors in DMSO and 120 μl of pre-incubated protein/probe complexes in the assay buffer were added into assay plates and incubated at room temperature for 2 hours with gentle shaking. […] FP values were measured as described above. IC50 values were determined by nonlinear regression fitting of the competition curves.

RS4;11 cells = assay: RS4;11 cell viability, CCK-8 assay; type: cell-based; conditions: Homo sapiens, RS4-11, 96 h, CCK-8, 4 days, read-out: RS4, 11 IC50 (Bcl-2 dependent)
Description: RS4;11 cells were obtained from American Type Culture Collection (ATCC). They were used within three months of thawing fresh vials. Cells were maintained in the recommended culture medium with 10% FBS at 37° C. and an atmosphere of 5% CO2.
The effect of representative Compounds of the Disclosure on cell viability was determined using Cell Counting Kit-8 (CCK-8) assay (Dojindo, Rockville, Md.) according to the manufacturer's instructions. 200 μL of a RS4;11 cell suspension (10000 cells/well) in culture medium were seeded into 96-well plates and cultured overnight. Each tested compound was serially diluted in culture medium, and 20 μL of the compound dilution was added to the corresponding well of the cell plate. After the addition of the tested compound, the cells were incubated at 37° C. in an atmosphere of 5% CO2 for 4 days. At the end of 4 days, 10 μL of CCK-8 solution was added to each well of the plate and incubated for 1-4 hours. The plates were read at 450 nm on the microplate spectrophotometer (Epoch2, BioTek). The readings were normalized to the vehicle cells, and the IC50 was calculated by nonlinear regression analysis using GraphPad Prism 5 software.

Molm13 cells = assay: Molm13 cell viability, CCK-8 assay; type: cell-based; conditions: Homo sapiens, MOLM-13, 96 h, CCK-8, 4 days, read-out: Molm13 IC50 (Bcl-2 dependent)
Description: Molm13 cells were obtained from Deutsche Sammlung von Mikroorganismen und Zellkulturen GmbH (DSMZ). They were used within three months of thawing fresh vials. Cells were maintained in the recommended culture medium with 10% FBS at 37° C. and an atmosphere of 5% CO2.
200 μL of a Molm13 cell suspension (10000 cells/well) in culture medium were seeded into 96-well plates and cultured overnight. Each tested compound was serially diluted in culture medium, and 20 μL of the compound dilution was added to the corresponding well of the cell plate. After the addition of the tested compound, the cells were incubated at 37° C. in an atmosphere of 5% CO2 for 4 days. […] The plates were read at 450 nm on the microplate spectrophotometer (Epoch2, BioTek). The readings were normalized to the vehicle cells, and the IC50 was calculated by nonlinear regression analysis using GraphPad Prism 5 software.

Bcl-2 = Bcl-2 (Homo sapiens (Human), UniProt P10415)
Chain of Bcl-2 (P10415 whole entry): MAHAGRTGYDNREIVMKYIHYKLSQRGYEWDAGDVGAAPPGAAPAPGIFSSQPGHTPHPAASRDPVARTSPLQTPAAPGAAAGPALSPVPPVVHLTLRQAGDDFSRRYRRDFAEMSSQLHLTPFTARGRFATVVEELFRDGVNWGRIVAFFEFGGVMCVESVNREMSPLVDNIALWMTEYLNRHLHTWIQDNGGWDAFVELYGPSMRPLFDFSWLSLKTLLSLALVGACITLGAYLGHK
Description: as §1, §2

Pharmacokinetics in rats = type: in vivo
Description: The pharmacokinetics of ABT-199 and representative Compounds of the Disclosure were evaluated in rats at an IV dose of 2 mg/kg and an oral dose of 20 mg/kg.

Mcl-1 = Mcl-1 (Homo sapiens (Human), UniProt Q07820); assay: FP saturation binding of fluorescent probe to Mcl-1; conditions: 2 nM probe
Chain of Mcl-1 (Q07820 whole entry): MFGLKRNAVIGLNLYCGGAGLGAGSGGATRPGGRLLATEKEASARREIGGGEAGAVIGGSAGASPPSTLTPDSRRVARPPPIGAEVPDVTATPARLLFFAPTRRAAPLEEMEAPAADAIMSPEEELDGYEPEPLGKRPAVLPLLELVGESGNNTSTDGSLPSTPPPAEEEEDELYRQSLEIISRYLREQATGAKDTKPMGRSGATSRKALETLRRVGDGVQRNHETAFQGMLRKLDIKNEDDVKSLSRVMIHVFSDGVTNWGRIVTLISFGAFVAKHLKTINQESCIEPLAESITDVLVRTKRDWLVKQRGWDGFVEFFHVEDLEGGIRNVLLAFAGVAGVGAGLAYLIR
Description: as §1

Row | Compound | IC50 (Bcl-xL) | IC50 (RS4;11 cells) | IC50 (Molm13 cells) | IC50 (Bcl-2) | also measured
1 | O=C(NS(=O)(=O)c1ccc(NCC2CCOCC2)c([N+](=O)[O-])c1)c1ccc(N2CCN(CC3=C(c4ccc(Cl)cc4)CC4(CC3)COC4)CC2)cc1Oc1cnc2[nH]ccc2c1 [Cpd. No. 2, 2-((1H-pyrrolo[2,3-b]pyridin-5-yl)oxy)-4-(4-((6-(4-chlorophenyl)-2-oxaspiro[3.5]non-6-en-7-yl)methyl)piperazin-1-yl)-N-((3-nitro-4-(((tetrahydro-2H-pyran-4-yl)methyl)amino)phenyl)sulfonyl)benzamide] | 10.6 nM | 5.5 nM | 85 nM | 0.76 nM | 
2 | O=C(NS(=O)(=O)c1ccc(NCC2CCOCC2)c([N+](=O)[O-])c1)c1ccc(N2CCN(CC3=C(c4ccc(Cl)cc4)CC4(CCC4)CC3)CC2)cc1Oc1cnc2[nH]ccc2c1 [Cpd. No. 3, 2-((1H-pyrrolo[2,3-b]pyridin-5-yl)oxy)-4-(4-((6-(4-chlorophenyl)spiro[3.5]non-6-en-7-yl)methyl)piperazin-1-yl)-N-((3-nitro-4-(((tetrahydro-2H-pyran-4-yl)methyl)amino)phenyl)sulfonyl)benzamide] | 13.7 nM | 26 nM |  | 1.2 nM | AUC0-∞ IV (Pharmacokinetics in rats; IV 2 mg/kg): 2683 n · gh/mL; AUC0-∞ PO (Pharmacokinetics in rats; oral 20 mg/kg): 7775 n · gh/mL; F(AUC0-t) (Pharmacokinetics in rats; oral 20 mg/kg vs IV 2 mg/kg): 29.0%; MRT inf (Pharmacokinetics in rats; rat, in vivo, IV 2 mg/kg): 2.37 h; AUC(0-t) (Pharmacokinetics in rats; rat, in vivo, IV 2 mg/kg, read-out: AUC0-t IV): 2660 ng·h/mL; clearance (Pharmacokinetics in rats; rat, in vivo, IV 2 mg/kg, read-out: CL (iv) (converted)): 12.8 mL/min/kg; Cmax (Pharmacokinetics in rats; rat, in vivo, IV 2 mg/kg, read-out: Cmax IV): 4200 ng/mL; Tmax (Pharmacokinetics in rats; rat, in vivo, IV 2 mg/kg, read-out: Tmax IV): 0.083 h; Vd (Pharmacokinetics in rats; rat, in vivo, IV 2 mg/kg, read-out: Vss (iv)): 1.86 L/kg; half-life (Pharmacokinetics in rats; rat, in vivo, IV 2 mg/kg, read-out: t1/2 IV (converted)): 4.94 h; AUC(0-t) (Pharmacokinetics in rats; rat, in vivo, oral 20 mg/kg, read-out: AUC0-t PO): 7630 ng·h/mL; Cmax (Pharmacokinetics in rats; rat, in vivo, oral 20 mg/kg, read-out: Cmax PO): 1320 ng/mL; Tmax (Pharmacokinetics in rats; rat, in vivo, oral 20 mg/kg, read-out: Tmax PO): 2 h; half-life (Pharmacokinetics in rats; rat, in vivo, oral 20 mg/kg, read-out: t1/2 PO (converted)): 4.46 h
3 | O=C(NS(=O)(=O)c1ccc(NC[C@@H]2COCCO2)c([N+](=O)[O-])c1)c1ccc(C2=CCN(CC3=C(c4ccc(Cl)cc4)CC4(CCC4)CC3)CC2)cc1Oc1cnc2[nH]ccc2c1 [compound 1, (R)-N-((4-(((1,4-dioxan-2-yl)methyl)amino)-3-nitrophenyl)sulfonyl)-2-((1H-pyrrolo[2,3-b]pyridin-5-yl)oxy)-4-(1-((6-(4-chlorophenyl)spiro[3.5]non-6-en-7-yl)methyl)-1,2,3,6-tetrahydropyridin-4-yl)benzamide] |  | 3 nM | 47 nM |  | 
4 | CNc1ccc(S(=O)(=O)NC(=O)c2ccc(N3CCN(CC4=C(c5ccc(Cl)cc5)CC5(CCC5)CC4)CC3)cc2Oc2cnc3[nH]ccc3c2)cc1[N+](=O)[O-] [compound 10, 2-((1H-pyrrolo[2,3-b]pyridin-5-yl)oxy)-4-(4-((6-(4-chlorophenyl)spiro[3.5]non-6-en-7-yl)methyl)piperazin-1-yl)-N-((4-(methylamino)-3-nitrophenyl)sulfonyl)benzamide] | 14 nM | 32 nM | 182 nM | 3.3 nM | 
5 | CN(C)c1ccc(S(=O)(=O)NC(=O)c2ccc(N3CCN(CC4=C(c5ccc(Cl)cc5)CC5(CCC5)CC4)CC3)cc2Oc2cnc3[nH]ccc3c2)cc1[N+](=O)[O-] [compound 11, 2-((1H-pyrrolo[2,3-b]pyridin-5-yl)oxy)-4-(4-((6-(4-chlorophenyl)spiro[3.5]non-6-en-7-yl)methyl)piperazin-1-yl)-N-((4-(dimethylamino)-3-nitrophenyl)sulfonyl)benzamide] | 77.8 nM | 61 nM | 1020 nM | 11.9 nM | 
6 | O=C(NS(=O)(=O)c1ccc(NCC2CCOCC2)c([N+](=O)[O-])c1)c1ccc(C2CCN(CC3=C(c4ccc(Cl)cc4)CC4(CCC4)CC3)CC2)cc1Oc1cnc2[nH]ccc2c1 [compound 12, 2-((1H-pyrrolo[2,3-b]pyridin-5-yl)oxy)-4-(1-((6-(4-chlorophenyl)spiro[3.5]non-6-en-7-yl)methyl)piperidin-4-yl)-N-((3-nitro-4-(((tetrahydro-2H-pyran-4-yl)methyl)amino)phenyl)sulfonyl)benzamide] |  | 78 nM | 253 nM | 4.4 nM | 
7 | CC(C)c1nc2cc(S(=O)(=O)NC(=O)c3ccc(N4CCN(CC5=C(c6ccc(Cl)cc6)CC6(CCC6)CC5)CC4)cc3Oc3cnc4[nH]ccc4c3)cc([N+](=O)[O-])c2[nH]1 [compound 58, 2-((1H-pyrrolo[2,3-b]pyridin-5-yl)oxy)-4-(4-((6-(4-chlorophenyl)spiro[3.5]non-6-en-7-yl)methyl)piperazin-1-yl)-N-((2-isopropyl-7-nitro-1H-benzo[d]imidazol-5-yl)sulfonyl)benzamide] | 19.2 nM | 35 nM | 250 nM | 3.8 nM | 
8 | O=C(NS(=O)(=O)c1cc([N+](=O)[O-])c2[nH]c(C3CC3)nc2c1)c1ccc(N2CCN(CC3=C(c4ccc(Cl)cc4)CC4(CCC4)CC3)CC2)cc1Oc1cnc2[nH]ccc2c1 [compound 59, 2-((1H-pyrrolo[2,3-b]pyridin-5-yl)oxy)-4-(4-((6-(4-chlorophenyl)spiro[3.5]non-6-en-7-yl)methyl)piperazin-1-yl)-N-((2-cyclopropyl-7-nitro-1H-benzo[d]imidazol-5-yl)sulfonyl)benzamide] | 20.7 nM | 65 nM | 468 nM | 5 nM | 
9 | O=C(NS(=O)(=O)c1cc([N+](=O)[O-])c2cn(CC3CCOCC3)nc2c1)c1ccc(N2CCN(CC3=C(c4ccc(Cl)cc4)CC4(CCC4)CC3)CC2)cc1Oc1cnc2[nH]ccc2c1 [compound 63, 2-((1H-pyrrolo[2,3-b]pyridin-5-yl)oxy)-4-(4-((6-(4-chlorophenyl)spiro[3.5]non-6-en-7-yl)methyl)piperazin-1-yl)-N-((4-nitro-2-((tetrahydro-2H-pyran-4-yl)methyl)-2H-indazol-6-yl)sulfonyl)benzamide] | 7.1 nM | 55 nM |  | 1.3 nM | 
10 | O=C(NS(=O)(=O)c1cc([N+](=O)[O-])c2cn(C3CCOCC3)nc2c1)c1ccc(N2CCN(CC3=C(c4ccc(Cl)cc4)CC4(CCC4)CC3)CC2)cc1Oc1cnc2[nH]ccc2c1 [compound 65, 2-((1H-pyrrolo[2,3-b]pyridin-5-yl)oxy)-4-(4-((6-(4-chlorophenyl)spiro[3.5]non-6-en-7-yl)methyl)piperazin-1-yl)-N-((4-nitro-2-(tetrahydro-2H-pyran-4-yl)-2H-indazol-6-yl)sulfonyl)benzamide] | 9.9 nM | 11 nM |  | 1.4 nM | 
11 | Flu-BID: Fluorescein labeled BID (79-99) peptide, fluorescent probe in FP assay for Mcl-1 |  |  |  |  | Kd (Mcl-1): 6.9 ± 0.9 nM
